For data set [1], the system named is Fragile X (Fmr1) knockout mouse. As to the kind of experiment: T-maze spontaneous alternation (novelty preference), Fragile X model. The data set is classed as in vivo. The settings on record: Fmr1 KO mice, weekly suramin 20 mg/kg ip.
From the text: A preference for novelty was estimated as spontaneous alternation behavior in the T-maze.
In data set [2] the test system is cerebral synaptosomes. The experiment in a line: Synaptosome isolation and ultrastructure (electron microscopy). As to conditions: suramin-treated Fmr1 KO mice. The data set is classed as in vivo, mouse. The source says: Cerebral samples were collected, homogenized and synaptosomes isolated by discontinuous Percoll gradient centrifugation, drop dialyzed, glutaraldehyde fixed, post-fixed in osmium tetroxide, embedded, sectioned, and stained with uranyl acetate for transmission electron microscopy. Samples from the FVB control animals (+/−suramin) were not available for study by either electron microscopy or Western analysis.
In the present study of the Fragile X model, saline-treated Fmr1 knockout mice had cerebral synaptosomes that also contained an electron dense matrix, and fragile, hypomorphic post-synaptic densities.

Data set [3] in a line: Suramin quantitation in plasma and brain tissues by LC-MS/MS. The data set is classed as in vivo, mouse. As to the method: Offspring of timed matings were weaned at 3-4 weeks of age into cages of two to four animals. No mice were housed in isolation. Only males were evaluated in these studies. Littermates were identified by ear tags and distributed into different cages in order to minimize litter and dam effects. […] Beginning 2 days later, behaviors were evaluated.
Tissue samples (brainstem, cerebrum and cerebellum) were ground into powder under liquid nitrogen in a pre-cooled mortar. Powdered tissue (15-50 mg) was weighed and mixed with the internal standard trypan blue to a final concentration of 5 μM (pmol mg^−1) and incubated at room temperature for 10 min to permit metabolite interaction with binding proteins. Nine volumes of methanol:acetonitrile:H2O (43:43:16) pre-chilled to −20° C. was added to produce a final solvent ratio of 40:40:20, and the samples were deproteinated and macromolecules removed by precipitation on crushed ice for 30 min. The mixture was centrifuged at 16 000 g for 10 min at 4° C. and the supernatant was transferred to a new tube and kept at −80° C. for further LC-MS/MS (liquid chromatography-tandem mass spectrometry) analysis. For plasma, 90 μl was used, to which 10 μl of 50 μM stock of trypan blue was added to achieve an internal standard concentration of 5 μM. This was incubated at room temperature for 10 min to permit metabolite interaction with binding proteins, then extracted with 4 volumes (400 μl) of pre-chilled methanol:acetonitrile (50:50) to produce a final concentration of 40:40:20 (methanol:acetonitrile:H2O) and precipitated on ice for 10 min. Other steps were the same as for solid tissue extraction.
Ten microliters of extract were injected onto a Kinetix pentafluorophenyl column (150×2.1 mm, 2.6 μm; Phenomenex, Torrance, Calif., USA) held at 30° C. for chromatographic separation. The mobile phase A was water with 20 mM ammonium acetate (NH4OAC; pH 7) and mobile phase B was methanol with 20 mM NH4OAC (pH 7). […] The flow rate was 300 μl min^−1. All the samples were kept at 4° C. during analysis. […] The electrospray ionization source parameters were set as follows: source temperature 500° C.; curtain gas 30; ion source gas 1, 35; ion source gas 2 35; spray voltage −4500V. Analyst 1.6.1 was used for data acquisition and analysis. N=4-6 per tissue. Results are reported as means±s.e.m. in absolute μM (pmol μl^−1) concentration for plasma, and pmol mg^−1 wet weight for tissues.
After completing the behavioral studies described above, mass spectrometry was used to measure drug levels in plasma, cerebrum, cerebellum and brainstem following a 5-week period of drug washout.

For data set [4] the following is noted: mice, after a single dose; cited from earlier work.
Data set [5] has as its system Fragile X (Fmr1) knockout mouse. The experiment in a line: Body temperature measurements (rectal core temperature). The data set is classed as in vivo. How it is done: A BAT-12 Microprobe digital thermometer and RET-3 mouse rectal probe (Physitemp Instruments, Clifton, N.J.) were used to obtain rectal core temperatures to a precision of +/−0.1° C. Care was taken to measure temperatures ≧2 days after cage bedding changes, and to avoid animal transport stress immediately prior to measurement in order to avoid stress-induced hyperthermia (Adriaan Bouwknecht et al., 2007). Temperatures were measured between 9 am to 12 noon each day.
Normal basal body temperature was restored by antipurinergic therapy with suramin.

Setting [6] is: 2 days after 20 mg kg^−1 i.p., control (Sal-Sur) or MIA (PIC-Sur) animals.

Bounds are passed on as bounds.

Consider `Cc1ccc(C(=O)Nc2ccc(S(=O)(=O)O)c3cc(S(=O)(=O)O)cc(S(=O)(=O)O)c23)cc1NC(=O)c1cccc(NC(=O)Nc2cccc(C(=O)Nc3cc(C(=O)Nc4ccc(S(=O)(=O)O)c5cc(S(=O)(=O)O)cc(S(=O)(=O)O)c45)ccc3C)c2)c1` [Suramin, suramin], for which, in data set [1], the “deficient novelty preference (spontaneous alternation in T-maze)” value was “normalized”. The cerebral synaptosome ultrastructure result in data set [2] is recorded as “near-normal appearing cerebral synaptosomes”. The same molecule registered a brainstem suramin in data set [3] (2 days after 20 mg kg^−1 i.p.) of 5.15 pmol/mg. For the same molecule, in data set [3] (setting [6]), the suramin in cerebellum is recorded as < 0.10 pmol mg^−1 wet weight and the suramin in cerebrum is reported as < 0.10 pmol mg^−1 wet weight. Further, the “suramin in any tissue (plasma, cerebrum, cerebellum, brainstem)” value in data set [3] (after 5 weeks of drug washout) is “No suramin was detected”. Moreover, the concentration at 2 days in data set [3] (male, mouse, plasma, ip, 2 days after 20 mg kg^−1 i.p.) turned out to be 7.64 µM. In addition, the plasma half-life in data set [4] is on record as 1 week. The “body temperature of control animals” value in data set [5] (WT-Sal vs WT-Sur) is “no effect”. Further, the “basal body temperature of Fmr1 knockout mice” value in data set [5] (relative hypothermia of knockout, suramin treatment) is recorded as “restored”.

The values are drawn from US20160209428A1, “DIAGNOSTIC AND PREDICTIVE METABOLITE PATTERNS FOR DISORDERS AFFECTING THE BRAIN AND NERVOUS SYSTEM” (THE REGENTS OF THE UNIVERSITY OF CALIFORNIA, priority 2013, published 2016).
